From patent US20240158394A1, “NEK7 INHIBITORS” (Halia Therapeutics, Inc., priority 2022, published 2024)

Target: full-length recombinant human NEK7 (Homo sapiens (Human), UniProt Q8TDX7)
Assay: NEK7 Enzymatic Assay
Assay type: biochemical
Settings: casein substrate, [33P]-ATP, 2 hours at room temperature
Description: Casein substrate (from bovine milk, hydrolyzed and partially dephosphorylated mixture of α, β and κ caseins, obtained from Sigma Aldrich, catalogue #C4765, diluted in distilled water to a final concentration of 1 mg/mL) and full-length recombinant human NEK7 (expressed by baculovirus in Sf9 insect cells using a N-terminal GST tag, obtained from SignalChem, catalogue #N09-10G, 0.1 μg/μL) were mixed in assay buffer (20 mM HEPES pH 7.5, 10 mM MgCl2, 1 mM EGTA, 0.02% Brij35, 0.02 mg/mL BSA, 0.1 mM Na3VO4, 2 mM DTT, 1% DMSO). Compounds of interest (serial 3-fold dilution in DMSO from 10 μM to 0.5 nM) or vehicle (1% DMSO) were dispensed into the kinase reaction mixture by Acoustic technology (Echo550; nanoliter range). After incubation at room temperature for 20 minutes, the kinase reaction was initiated by addition of [^33P]-ATP (specific activity 10 μCi/μL) and the mixture was incubated at room temperature for 2 hours. The reaction was then stopped by spotting the reaction mixture on strips of phosphocellulose P81 paper. Following washing, the radioactivity of the P81 paper was measured and kinase activity data were expressed as the percent remaining kinase activity in test samples compared to vehicle reactions. IC50 values and curve fits were obtained using Prism (GraphPad Software).

Chain of full-length recombinant human NEK7 (Q8TDX7 whole entry): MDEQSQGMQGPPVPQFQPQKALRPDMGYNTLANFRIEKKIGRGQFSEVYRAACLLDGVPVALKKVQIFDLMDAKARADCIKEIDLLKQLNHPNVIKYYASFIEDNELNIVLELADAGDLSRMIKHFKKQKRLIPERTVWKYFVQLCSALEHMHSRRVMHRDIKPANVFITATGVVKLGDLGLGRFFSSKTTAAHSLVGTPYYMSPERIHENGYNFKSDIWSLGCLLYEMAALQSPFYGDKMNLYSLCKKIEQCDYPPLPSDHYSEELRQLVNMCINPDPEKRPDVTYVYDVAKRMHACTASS

| SMILES | IC50 |
| --- | --- |
| Nc1ncnc2c1c(-c1ccc(NC(=O)Nc3cc(C4(C(F)(F)F)CC4)no3)c3occc13)cn2C1CC1 [Example I-64, 1-(4-(4-amino-7-cyclopropyl-7H-pyrrolo[2,3-d]pyrimidin-5-yl)benzofuran-7-yl)-3-(3-(1-(trifluoromethyl)cyclo-propyl)isoxazol-5-yl)urea] | > 2 µM |
| Nc1ncnc2c1c(-c1ccc(NC(=O)Nc3cc(C4CC4)on3)c3nccn13)cn2C1CC1 [Example I-120, 1-(5-(4-amino-7-cyclopropyl-7H-pyrrolo[2,3-d]pyrimidin-5-yl)imidazo[1,2-a]pyridin-8-yl)-3-(5-cyclopropylisoxazol-3-yl)urea] | < 0.2 µM |
| CC1(c2cc(NC(=O)Nc3ccc(-c4cn(C5CC5)c5ncnc(N)c45)n4ccnc34)on2)CCC1 [Example I-19, 1-(5-(4-amino-7-cyclopropyl-7H-pyrrolo[2,3-d]pyrimidin-5-yl)imidazo[1,2-a]pyridin-8-yl)-3-(3-(1-methylcyclobutyl)-isoxazol-5-yl)urea] | 0.2 to 0.5 µM |
| CCN1CCN(Cc2ccc(NC(=O)Nc3ccc(-c4cn(C5CC5)c5ncnc(N)c45)c4c3OCC4)cc2C(F)(F)F)CC1 [Example I-54, 1-(4-(4-amino-7-cyclopropyl-7H-pyrrolo[2,3-d]pyrimidin-5-yl)-2,3-dihydrobenzofuran-7-yl)-3-(4-((4-ethylpiperazin-1-yl)methyl)-3-(trifluorometh-yl)phenyl)urea] | < 0.2 µM |
| CN1CCN(Cc2ccc(NC(=O)Nc3ccc(-c4cn(C5CCNCC5)c5ncnc(N)c45)n4ccnc34)cc2C(F)(F)F)CC1 [Example I-133, 1-(5-(4-amino-7-(piperidin-4-yl)-7H-pyrrolo[2,3-d]pyr-imidin-5-yl)imidazo[1,2-a]-pyridin-8-yl)-3-(4-((4-methyl-piperazin-1-yl)methyl)-3-(trifluoromethyl)phenyl)urea] | < 0.2 µM |
| Nc1ncnc2c1c(-c1ccc(NC(=O)Nc3cc(C4(C(F)(F)F)CC4)no3)c3ccccc13)cn2C1CC1 [Example I-1, 1-(4-(4-amino-7-cyclopropyl-7H-pyrrolo[2,3-d]pyrimidin-5-yl)naphthalen-1-yl)-3-(3-(1-(trifluoromethyl)cyclopropyl)-isoxazol-5-yl)urea] | > 2 µM |
| CCN1CCC(Oc2ccc(NC(=O)Nc3ccc(-c4cn(C(C)C)c5ncnc(N)c45)n4ccnc34)cc2C(F)(F)F)CC1 [Example I-136, 1-(5-(4-amino-7-isopropyl-7H-pyrrolo[2,3-d]pyrimidin-5-yl)imidazo[1,2-a]pyridin-8-yl)-3-(4-((1-ethylpiperidin-4-yl)oxy)-3-(trifluoromethyl)-phenyl)urea] | < 0.2 µM |
| CC(C)(C)c1cc(NC(=O)Nc2ccc(-c3cn(C4CC4)c4ncnc(N)c34)n3ccnc23)n(-c2ccc(Cl)cc2)n1 [Example I-13, 1-(5-(4-amino-7-cyclopropyl-7H-pyrrolo[2,3-d]pyrimidin-5-yl)imidazo[1,2-a]pyridin-8-yl)-3-(3-(tert-butyl)-1-(4-chlorophenyl)-1H-pyrazol-5-yl)urea] | 0.5 to 2 µM |
| CN1CCC(Oc2ccc(NC(=O)Nc3ccc(-c4cn(C5CC5)c5ncnc(N)c45)c4ccncc34)cc2C(F)(F)F)CC1 [Example I-10, 1-(5-(4-amino-7-cyclopropyl-7H-pyrrolo[2,3-d]pyrimidin-5-yl)isoquinolin-8-yl)-3-(4-((1-methylpiperidin-4-yl)oxy)-3-(trifluoromethyl)phenyl)urea] | < 0.2 µM |
| CC(C)c1cc(NC(=O)Nc2ccc(-c3cn(C4CC4)c4ncnc(N)c34)n3ccnc23)on1 [Example I-16, 1-(5-(4-amino-7-cyclopropyl-7H-pyrrolo[2,3-d]pyrimidin-5-yl)imidazo[1,2-a]pyridin-8-yl)-3-(3-isopropylisoxazol-5-yl)urea] | < 0.2 µM |
| Nc1ncnc2c1c(-c1ccc(NC(=O)Nc3cc(C4(C(F)(F)F)CC4)on3)c3nccn13)cn2C1CC(O)C1 (centres unmarked) [Example I-87, 1-(5-(4-amino-7-(3-hydroxy-cyclobutyl)-7H-pyrrolo[2,3-d]pyrimidin-5-yl)imidazo[1,2-a]pyridin-8-yl)-3-(5-(1-(trifluoromethyl)cyclopropyl)-isoxazol-3-yl)urea] | < 0.2 µM |
